Reference: US6372493B1, “Hormone-secreting cells maintained in long-term culture” (Pacific Biomedical Research, Inc. [Cell Mart, Inc.], priority 1991, dated 2002)

Experiments:
[1] = tested on: Ovarian follicular cells, lines 100B-OR-5A, 100B5-OR-B, 100B5-OR-D; test: 8-Br-cAMP / FSH stimulation of progesterone secretion by cultured follicular cells; assay type: cell-based, human; details: 1 mM 8-Br-cAMP, 24 hours
Procedure: (§1) Cells in SC-2 were propagated and sub-cultured as above more than 20 times. […] Quantitative radioimmune assays (RIA) were employed as described in Radioassay Systems in Clinical Endocrinology, 1981, Ed. G. E. Abraham, {Basel: Marcel Dekker}, pp. 475-529. Progesterone, testosterone, estradiol, prolactin, thyroid stimulating hormone and luteinizing hormone were assayed by the Coat-a-Count procedure (Diagnostic Products Corp., Los Angeles).
Ovarian follicular cells, lines 100B-OR-5A, 100B5-OR-B, and 100B5-OR-D, were established in culture as described in Example 1 and maintained and sub-cultured as described in Example 2. From these lines were created sub-cultures designated 1, 2, and 3 respectively, which were employed in the stimulation protocol described below.

[2] = tested on: Human pancreas cells at passage generation 47; test: Effect of amino acids on glucose stimulated insulin secretion (Example 20); assay type: cell-based; details: for insulin secretion, +10 mM alanine / insulin secretion, +20 mM arginine: 90 minutes
Procedure: Human pancreas cells at passage generation 47, were prepared for the experiment as described in Example 17 above. The cells were incubated in 6 parts PDM plus 1 part DMSS medium at a concentration of 10^5 cells/ml, at various concentrations of glucose. Alanine (10 mM) or arginine(20 mM) were added, and the cells were incubated for 90 minutes, at which time samples were collected for assay of insulin content.

[3] = tested on: human follicular cells; test: Long-term hormone secretion of follicular sub-cultures with added testosterone substrate (Example 2); assay type: cell-based; set-up: dose or concentration left out as unconfirmed; details: testosterone added as substrate for steroid production
Procedure: as §1, with “Angeles). Follicle-stimulating hormone and B-hCG were assayed by the SERONO MATAclone procedure (Serono, Italy).” for “Angeles).”
Conclusions: Using this method, human follicular cells were propagated in culture and transferred to serial subcultures which continued to proliferate and to secrete hormones.

Nc1ncnc2c1nc(Br)n2[C@@H]1O[C@@H]2COP(=O)(O)O[C@H]2[C@H]1O [8-Br-cAMP]
Prog ([1]; culture 1): 24.5 ng/10^6 cells | Prog ([1]; culture 2): 12.9 ng/10^6 cells | Prog ([1]; culture 3): 20.8 ng/10^6 cells

C[C@H](N)C(=O)O [alanine, Alanine]
increase of insulin secretion over that stimulated by glucose alone ([2]; 10 mM alanine at 2 mM glucose): 1.25 fold | insulin secretion stimulated over the intermediate level of secretion ([2]; 10 mM alanine together with 1 mM glucose, 1.5 hours): approximately 1.13 fold | insulin secretion, +10 mM alanine ([2]; total 1 mM glucose): 103 | insulin secretion, +10 mM alanine ([2]; total 2 mM glucose): 135 | insulin secretion, +10 mM alanine ([2]; total 6 mM glucose): 127 | insulin secretion, +10 mM alanine ([2]; total 11 mM glucose): 117 | insulin secretion, +10 mM alanine ([2]; total 16 mM glucose): 101 | insulin secretion, +10 mM alanine ([2]; total 22 mM glucose): 87

C[C@]12CC[C@H]3[C@@H](CCC4=CC(=O)CC[C@@]43C)[C@@H]1CC[C@@H]2O [testosterone]
time subcultures continued to secrete hormones after first placed in culture [3]: ≤ 16 months

N=C(N)NCCC[C@H](N)C(=O)O [arginine]
insulin secretion, +20 mM arginine ([2]; total 1 mM glucose): 128 | insulin secretion, +20 mM arginine ([2]; total 2 mM glucose): 134 | insulin secretion, +20 mM arginine ([2]; total 6 mM glucose): 105 | insulin secretion, +20 mM arginine ([2]; total 11 mM glucose): 93 | insulin secretion, +20 mM arginine ([2]; total 16 mM glucose): 99 | insulin secretion, +20 mM arginine ([2]; total 22 mM glucose): 94
